# Measurements: patent US20110028566A1, “COMPOSITIONS AND PRODUCTS CONTAINING CYCLOALIPHATIC DIOL ANTIMICROBIAL AGENTS AND METHODS OF USING THE COMPOSITIONS AND PRODUCTS” (EASTMAN CHEMICAL COMPANY, priority 2009, published 2011)
# Key:
# Format in all cases: cell-based
# Malassezia furfur = test: Challenge testing with pathogenic fungi in SDB; conditions: SDB with olive oil and Tween 80, w/v % in label, pellicle formation; for Grade code, Pathogenic Fungi, M. furfur, 3 Days: 3 days incubation; for Grade code, Pathogenic Fungi, M. furfur, 14 Days: 14 days incubation; for Grade code, Pathogenic Fungi, M. furfur, 30 Days: 30 days incubation
# Method: (§1) Both M. canis and Trichophyton rubrum were grown on Sabouraud dextrose broth (SDB) (pH 5.6), while Malassezia fufur was grown in SDB supplemented with 2% (v/v) of olive oil and 0.2% (v/v) of Tween™ 80; incubation was at 22° C.±2° C. under continuous agitation by stirring for 10 days. The organisms were grown to a cell concentration of between 10^3 and 10^4 cfu/mL. The actual inoculation cell concentration of these challenges was determined by diluting in sterile buffer water and (spread-plate method) plating for enumeration.
# (§2) Challenge organisms were used to inoculate tubes containing each test material (CHDM, etc) or combination of test materials, at concentrations given in Table 5, in SDB (or for M. furfur, in SDB supplemented with olive oil and Tween™ 80). The inoculations were in the amount of 1.5 mL aliquots of each culture with static incubation at 22±2° C. Subcultures were made after 3-, 14-, and 30-days incubation. All challenges were conducted in triplicate. In the case of M. canis, the growth response was assessed by the visual presence or absence of growth in the tubes; in the case of T. rubrum, a respiratory dye (0.2% w/v aqueous INT solution: 2-(4-iodophenyl)-3-(4-nitrophenyl)-5-phenyl tetrazolium chloride) was added to the tubes, turning red if the organism was viable; and, finally, in the case of M. furfur, the growth response was assessed based upon visible pellicle formation in the tubes at the meniscus. The fungal growth in each tube was assigned a grade code as follows:
# (§3) 0: No visible growth 1: Some growth in tube 2: Moderate growth in tube 3: Good growth in tube 4: Extreme growth in tube
# (§4) All test material concentrations are given as w/v %. The grade codes given are the average of the grade codes for duplicate or triplicate samples.
# (§5) Table 5 compares the antimicrobial activity of 1,4-CHDM (AB) alone to 1,4-CHDM in combination with EDTA, phenoxyethanol (PE), and caprylyl glycol (CG). CHDM at 0.5% was tested with EDTA, and at 1.25 and 2.5% with EDTA, PE, and CG. (Note that the combination of CHDM with only EDTA was not tested against pathogenic fungi.) Results are also given for EDTA, PE, and CG alone, so the result for each mixture can be compared to the antimicrobial activity for each of its components individually. […] Possible synergies were determined by treating the grade code as an estimate of the log of the microbial count (log of cfu/mL). Log reductions can then be estimated by subtracting each grade code from the grade code for broth alone (grade code 5, except for the pathogenic fungi).
# Microsporum canis = test: Challenge testing with pathogenic fungi in SDB; conditions: w/v % in label, visual growth in tubes; for Grade code, Pathogenic Fungi, M. canis, 3 Days: 3 days incubation; for Grade code, Pathogenic Fungi, M. canis, 14 Days: 14 days incubation; for Grade code, Pathogenic Fungi, M. canis, 30 Days: 30 days incubation
# Method: as §1, §2, §3, §4, §5
# Trichophyton rubrum = test: Challenge testing with pathogenic fungi in SDB; conditions: w/v % in label, INT respiratory dye; for Grade code, Pathogenic Fungi, T. ruburm, 3 Days: 3 days incubation; for Grade code, Pathogenic Fungi, T. ruburm, 14 Days: 14 days incubation; for Grade code, Pathogenic Fungi, T. ruburm, 30 Days: 30 days incubation
# Method: as §1, §2, §3, §4, §5
# [1] = tested on: challenge organisms (fungi, Gram negative and Gram positive bacteria); test: Microbial challenge testing (Example 1), statements over all challenge organisms; conditions: Table 6 experiments; glycol 0.5 to 2.5 wt %, BIT 0.05 and 0.2 wt %; from grade codes
# Method: The microorganisms used in challenge tests are given in Table 3, designated as either ATCC (American Type Culture Collection) or wild type. These wild type organisms were problematic organisms previously isolated from chemical products. In the description for each organism, the bacteria are indicated as either GN (Gram negative) or GP (Gram positive). […] Sample substrates were prepared in triplicate, except those substrates containing PE or CG which were prepared in duplicate. […] After mixing, all challenged substrates were incubated at 35° C.±2° C. for 14 days and then at ambient room temperature. […] The turbidity of the sample was determined and, if needed, the sample was diluted with phosphate buffer (pH 7.2) to produce readable plate counts (see “Plate Counts” below). […] For diluted samples, plates producing 22 to 220 colonies per plate were counted and the count was multiplied by the dilution factor. […] Possible synergies were determined by treating the grade code as an estimate of the log of the microbial count (log of cfu/mL). […] Synergies were determined in the same way as described above for Table 5. […] As mentioned previously, synergies (as indicated in Tables 5 and 6) were determined by treating the grade codes as the logarithm (log) of the organism counts (cfu/ml), then adding log reductions for the individual components and comparing to the log reduction for the mixture. […]
structure (smiles),measurement,setting,value
"CCCCCCC(O)CO (stereo not shown) [CG, 1,2-octanediol]","Grade code, Pathogenic Fungi, M. furfur, 3 Days",Malassezia furfur,0
same,"Grade code, Pathogenic Fungi, M. furfur, 14 Days",Malassezia furfur,0
same,"Grade code, Pathogenic Fungi, M. furfur, 30 Days",Malassezia furfur,0
same,"Grade code, Pathogenic Fungi, M. canis, 3 Days",Microsporum canis,0
same,"Grade code, Pathogenic Fungi, M. canis, 14 Days",Microsporum canis,0
same,"Grade code, Pathogenic Fungi, M. canis, 30 Days",Microsporum canis,0
same,"Grade code, Pathogenic Fungi, T. ruburm, 3 Days",Trichophyton rubrum,0
same,"Grade code, Pathogenic Fungi, T. ruburm, 14 Days",Trichophyton rubrum,0
same,"Grade code, Pathogenic Fungi, T. ruburm, 30 Days",Trichophyton rubrum,0
"OCC1CCC(CO)CC1 (stereo not shown) [1,4-CHDM, 1,4-cyclohexanedimethanol]",Synergism of cycloaliphatic diol with BIT (in words),[1],significant enhancement to the antimicrobial activity of BIT
same,"Grade code, Pathogenic Fungi, M. furfur, 3 Days",Malassezia furfur,0
same,"Grade code, Pathogenic Fungi, M. furfur, 14 Days",Malassezia furfur; listed as 0.5% AB,1
same,"Grade code, Pathogenic Fungi, M. furfur, 14 Days",Malassezia furfur; listed as 1.25% AB,0
same,"Grade code, Pathogenic Fungi, M. furfur, 14 Days",Malassezia furfur; listed as 2.5% AB,0
same,"Grade code, Pathogenic Fungi, M. furfur, 30 Days",Malassezia furfur; listed as 0.5% AB,2
same,"Grade code, Pathogenic Fungi, M. furfur, 30 Days",Malassezia furfur; listed as 1.25% AB,0
same,"Grade code, Pathogenic Fungi, M. furfur, 30 Days",Malassezia furfur; listed as 2.5% AB,0
same,"Grade code, Pathogenic Fungi, M. canis, 3 Days",Microsporum canis,2
same,"Grade code, Pathogenic Fungi, M. canis, 14 Days",Microsporum canis; listed as 0.5% AB,1
same,"Grade code, Pathogenic Fungi, M. canis, 14 Days",Microsporum canis; listed as 1.25% AB,1
same,"Grade code, Pathogenic Fungi, M. canis, 14 Days",Microsporum canis; listed as 2.5% AB,0
same,"Grade code, Pathogenic Fungi, M. canis, 30 Days",Microsporum canis; listed as 0.5% AB,1
same,"Grade code, Pathogenic Fungi, M. canis, 30 Days",Microsporum canis; listed as 1.25% AB,1
same,"Grade code, Pathogenic Fungi, M. canis, 30 Days",Microsporum canis; listed as 2.5% AB,0
same,"Grade code, Pathogenic Fungi, T. ruburm, 3 Days",Trichophyton rubrum; listed as 0.5% AB,1
same,"Grade code, Pathogenic Fungi, T. ruburm, 3 Days",Trichophyton rubrum; listed as 1.25% AB,0
same,"Grade code, Pathogenic Fungi, T. ruburm, 3 Days",Trichophyton rubrum; listed as 2.5% AB,0
same,"Grade code, Pathogenic Fungi, T. ruburm, 14 Days",Trichophyton rubrum; listed as 0.5% AB,1
same,"Grade code, Pathogenic Fungi, T. ruburm, 14 Days",Trichophyton rubrum; listed as 1.25% AB,0
same,"Grade code, Pathogenic Fungi, T. ruburm, 14 Days",Trichophyton rubrum; listed as 2.5% AB,0
same,"Grade code, Pathogenic Fungi, T. ruburm, 30 Days",Trichophyton rubrum; listed as 0.5% AB,1
same,"Grade code, Pathogenic Fungi, T. ruburm, 30 Days",Trichophyton rubrum; listed as 1.25% AB,0
same,"Grade code, Pathogenic Fungi, T. ruburm, 30 Days",Trichophyton rubrum; listed as 2.5% AB,0
"O=C([O-])CN(CCN(CC(=O)O)CC(=O)O)CC(=O)[O-].[Na+].[Na+] [EDTA, ethylenediaminetetraacetic acid disodium salt]","Grade code, Pathogenic Fungi, M. furfur, 3 Days",Malassezia furfur,0
same,"Grade code, Pathogenic Fungi, M. furfur, 14 Days",Malassezia furfur,0
same,"Grade code, Pathogenic Fungi, M. furfur, 30 Days",Malassezia furfur,0
same,"Grade code, Pathogenic Fungi, M. canis, 3 Days",Microsporum canis,2
same,"Grade code, Pathogenic Fungi, M. canis, 14 Days",Microsporum canis,1
same,"Grade code, Pathogenic Fungi, M. canis, 30 Days",Microsporum canis,0
same,"Grade code, Pathogenic Fungi, T. ruburm, 3 Days",Trichophyton rubrum,1
same,"Grade code, Pathogenic Fungi, T. ruburm, 14 Days",Trichophyton rubrum,0
same,"Grade code, Pathogenic Fungi, T. ruburm, 30 Days",Trichophyton rubrum,0
"CC1(C)C(O)C(C)(C)C1O (stereo not shown) [TMCD, 2,2,4,4-tetramethyl-1,3-cyclobutanediol]",Synergism of cycloaliphatic diol with BIT (in words),[1],significant enhancement to the antimicrobial activity of BIT
